Among the data in ChEMBL document CHEMBL3046589, “Synthesis and Fungicidal Activities of (-Methoxybenzyl) isoxazoles” (2000) are Activity and mortality values, retold here.

As a reminder, the mortality is the percentage killed.

Common to all, as to type: functional
Assay [1] concerns Podosphaera fuliginea. The assay can be described thus: Curative fungicidal activity against Podosphaera fuliginea infected cucumber leaves at 31.3 ppm after by foliar application method.
Assay [2] has as its system Podosphaera fuliginea. The experiment in a line: Curative fungicidal activity against Podosphaera fuliginea infected cucumber leaves at 7.8 ppm after by foliar application method.
Assay [3] deals with Myzus persicae. The assay can be described thus: Insecticidal activity against Myzus persicae (green peach aphid) nymphs fed with chinese cabbage leaf assessed as mortality at 15.6 ppm applied through spraying measured after 48 hr.
Assay [4] concerns Myzus persicae. The experiment in a line: Insecticidal activity against Myzus persicae (green peach aphid) nymphs fed with Chinese cabbage leaf assessed as mortality at 62.5 ppm applied through spraying measured after 48 hr.
Assay [5] concerns Myzus persicae. The assay can be described thus: Insecticidal activity against Myzus persicae (green peach aphid) nymphs fed with Chinese cabbage leaf assessed as mortality at 250 ppm applied through spraying measured after 48 hr.
Assay [6] deals with Pseudoperonospora cubensis. The experiment in a line: Curative fungicidal activity against Pseudoperonospora cubensis infected cucumber leaves at 31.3 ppm after by foliar application method.
The subject of assay [7] is Pseudoperonospora cubensis. The experiment in a line: Preventive fungicidal activity against Pseudoperonospora cubensis infected cucumber leaves at 7.8 ppm after by foliar application method.
Assay [8] concerns Podosphaera fuliginea. The experiment in a line: Preventive fungicidal activity against Podosphaera fuliginea infected cucumber leaves at 31.3 ppm after by foliar application method.
The subject of assay [9] is Podosphaera fuliginea. The experiment in a line: Preventive fungicidal activity against Podosphaera fuliginea infected cucumber leaves at 7.8 ppm after by foliar application method.
For assay [10], the system named is Pseudoperonospora cubensis. The assay can be described thus: Curative fungicidal activity against Pseudoperonospora cubensis infected cucumber leaves at 7.8 ppm after by foliar application method.
The test system of assay [11] is Pseudoperonospora cubensis. The experiment in a line: Preventive fungicidal activity against Pseudoperonospora cubensis infected cucumber leaves at 31.3 ppm after by foliar application method.
Assay [12] has as its system Pseudoperonospora cubensis. The assay can be described thus: Preventive fungicidal activity against Pseudoperonospora cubensis infected cucumber leaves at 500 ppm after by foliar application method.
The subject of a further assay is Botrytis cinerea. The experiment in a line: Preventive fungicidal activity against Botryotinia fuckeliana infected cucumber leaves at 500 ppm after by foliar application method.
Assay [13] concerns Podosphaera fuliginea. The experiment in a line: Preventive fungicidal activity against Podosphaera fuliginea infected cucumber leaves at 125 ppm after by foliar application method.
Assay [14] relates to Podosphaera fuliginea. The experiment in a line: Preventive fungicidal activity against Podosphaera fuliginea infected cucumber leaves at 500 ppm after by foliar application method.
Assay [15] has as its system Pseudoperonospora cubensis. The assay can be described thus: Preventive fungicidal activity against Pseudoperonospora cubensis infected cucumber leaves at 125 ppm after by foliar application method.

Turning to `COC(c1cc(C)no1)c1ccccc1/C=N/N=C(\C)c1ccc(Cl)c(Cl)c1` (stereo not drawn), the Activity is on record as 70% with Podosphaera fuliginea [1]; 30% in the assay on Podosphaera fuliginea [2]; 100% in [6]; 30% in assay [7]; 100% in the assay on Podosphaera fuliginea [8]; 100% in the assay with Podosphaera fuliginea [9]. The Activity in assay [10] is 100%; in assay [11] it was 70%. Moreover, in the assay with Myzus persicae [3], the mortality at 15.6 ppm worked out at 0%. The mortality at 62.5 ppm with Myzus persicae [4] was determined as 3%. Moreover, the mortality at 250 ppm with Myzus persicae [5] was 3%.
`COC(c1cc(C)no1)c1ccccc1/C=N/N=C(\C)c1cccc(Cl)c1` (stereo not drawn): in assay [12], the Activity was found to be 50%.
As for `COC(c1cc(C)no1)c1ccccc1CO/N=C(\SC)c1ccc(Cl)cc1` (stereo not drawn), the Activity is on record as 50% in [12], 50% in the assay on Botrytis cinerea and 90% in the assay on Podosphaera fuliginea [13].
Regarding `COC(c1cc(C)no1)c1ccccc1Oc1ncc(C(F)(F)F)cc1Cl` (stereo not drawn), the Activity (in assay [12]; in the assay on Botrytis cinerea) was 50% throughout.
In the case of `COC(c1cc(C)no1)c1ccccc1/C=N/N=C(\C)c1ccc(Cl)cc1` (stereo not drawn), the mortality at 15.6 ppm in the assay with Myzus persicae [3] came to 0%. In addition, the mortality at 62.5 ppm in the assay with Myzus persicae [4] is 1%. In the assay on Myzus persicae [5], the mortality at 250 ppm worked out at 2%. The Activity in the assay with Botrytis cinerea was 50%; in the assay with Podosphaera fuliginea [9], 90%; in assay [11], 50%.
For the compound `COC(C1=NOCC1)c1ccccc1COc1cc(C)ccc1C` (stereo not drawn), the Activity amounted to 50% in assay [12], 50% in the assay on Botrytis cinerea and 90% with Podosphaera fuliginea [13].
For the compound `COC(c1cc(C)no1)c1ccccc1/C=N/N=C(\C)c1ccc(Cl)cc1Cl` (stereo not drawn), the values for the Activity (in assay [12]; in the assay with Podosphaera fuliginea [8]) were 50% and 90%, respectively.
Regarding `COC(c1cc(C)no1)c1ccccc1/C=N/OC(C)c1ccc(Cl)cc1` (stereo not drawn), the Activity in assay [12] stood at 50%; with Botrytis cinerea, 50%; in the assay on Podosphaera fuliginea [9] it was 90%.
As for `COC(c1cc(C)no1)c1ccccc1CO/N=C(\C)c1ccc(Cl)cc1` (stereo not drawn), the Activity was 50% in assay [12], 50% in the assay with Botrytis cinerea and 90% with Podosphaera fuliginea [8].
As for `COC(c1cc(C)no1)c1ccccc1/C=N/N=C(\C)c1ccc(C(F)(F)F)cc1` (stereo not drawn), in the assay on Myzus persicae [3], the mortality at 15.6 ppm is 0%. In the assay on Myzus persicae [4], the mortality at 62.5 ppm turned out to be 1%. Further, the mortality at 250 ppm in the assay on Myzus persicae [5] amounted to 2%. For the same compound, the Activity with Podosphaera fuliginea [9] was 90%; in [11], 50%.
For the compound `COC(c1cc(C)no1)c1ccccc1COc1ccccc1C` (stereo not drawn), the values for the Activity (in [12]; with Botrytis cinerea; with Podosphaera fuliginea [8]) were 50%, 50% and 90%, respectively.
For the compound `COC(c1cc(C)no1)c1ccccc1/C=N/N=C(\C)c1ccc(Br)cc1` (stereo not drawn), the Activity amounted to 70% in the assay with Podosphaera fuliginea [1]; 50% with Podosphaera fuliginea [2]; 100% in assay [6]; 50% in assay [7]; 100% in the assay with Podosphaera fuliginea [8]; 100% in the assay with Podosphaera fuliginea [9]. The Activity in assay [10] was 100%; in assay [11] it was 70%.
For the compound `COC(c1cc(C)no1)c1ccccc1/C=N/N=C(\C)c1ccc(F)cc1` (stereo not drawn), the Activity came out at 50% in assay [12] and 90% in the assay on Podosphaera fuliginea [13].
In the case of `COC(c1cc(C)no1)c1ccccc1/C=N/N=C(\C)c1ccc(OC(F)(F)F)cc1` (stereo not drawn), the Activity stood at 45% with Podosphaera fuliginea [1]; 0% in the assay on Podosphaera fuliginea [2]; 100% in assay [6]; 50% in assay [7]; 100% in the assay on Podosphaera fuliginea [8]; 100% with Podosphaera fuliginea [9]. The Activity is reported as 100% in assay [10] and 60% in assay [11].
In the case of `COC(c1ccccc1COc1cc(C)ccc1C)C1CC(C)=NO1` (stereo not drawn), the Activity is listed as 50% in assay [12], 50% in the assay on Botrytis cinerea and 90% in the assay with Podosphaera fuliginea [14].
As to `COC(c1cc(C)on1)c1ccccc1COc1cc(C)ccc1C` (stereo not drawn), the Activity in [12] was 50%; with Botrytis cinerea it was 50%; in the assay on Podosphaera fuliginea [8], 90%.
Consider `CC(C)C(C(=O)OC(C#N)c1cccc(Oc2ccccc2)c1)c1ccc(OC(F)F)cc1` (stereo not drawn) [FLUCYTHRINATE], for which the mortality at 15.6 ppm in the assay with Myzus persicae [3] came to 3%. Further, the mortality at 62.5 ppm in the assay with Myzus persicae [4] amounted to 3%. Besides, in the assay on Myzus persicae [5], the mortality at 250 ppm came to 3%.
For the compound `COC(c1ccccc1COc1cc(C)ccc1C)c1c(C)noc1C` (stereo not drawn), the Activity in assay [12] turned out to be 50%; in the assay on Botrytis cinerea it was 50%; in the assay on Podosphaera fuliginea [14], 90%.
`COC(c1cc(C)no1)c1ccccc1/C=N/N=C(\C)c1ccccc1` (stereo not drawn): the Activity is recorded as 50% in assay [12] and 90% in the assay on Podosphaera fuliginea [14].
For `COC(c1cc(C)no1)c1ccccc1Oc1ccccc1` (stereo not drawn), the Activity (in assay [12]; in the assay on Botrytis cinerea) was 50% each time.
`COC(c1cc(C)no1)c1ccccc1/C=N/N=C(\C)c1ccccc1Cl` (stereo not drawn): the Activity in [12] is 50%; in the assay on Podosphaera fuliginea [14], 90%.
With `CO/N=C(\c1ccon1)c1ccccc1COc1cc(C)ccc1C`, the Activity amounted to 0% in the assay on Podosphaera fuliginea [1]; 0% in the assay with Podosphaera fuliginea [2]; 100% in [6]; 0% in assay [7]; 100% with Podosphaera fuliginea [8]; 100% with Podosphaera fuliginea [9]. In addition, the values for the Activity in assay [10] and in assay [11] were 100% and 0%, respectively.
Turning to `COC(c1cc(C)no1)c1ccccc1/C=C/c1ccc(Cl)cc1` (stereo not drawn), the Activity in [12] stood at 50%; in the assay on Botrytis cinerea it was 50%; in the assay on Podosphaera fuliginea [14], 90%.
For `COC(c1cc(C)no1)c1ccccc1COc1ccc(C(F)(F)F)cn1` (stereo not drawn), the Activity in assay [12] is reported as 50%; in the assay with Botrytis cinerea, 50%; in the assay with Podosphaera fuliginea [13], 90%.
For the compound `COc1ccc(/C(C)=N/N=C/c2ccccc2C(OC)c2cc(C)no2)cc1` (stereo not drawn), the values for the Activity (in the assay on Podosphaera fuliginea [13]; in assay [15]) were 90% and 50%, respectively.
`COC(c1cc(C)no1)c1ccccc1COc1ncc(C(F)(F)F)cc1Cl` (stereo not drawn): the Activity worked out at 50% in [12], 50% with Botrytis cinerea and 90% in the assay with Podosphaera fuliginea [8].
As for `CNC(=O)/C(=N/OC)c1ccccc1Oc1ccccc1` [METOMINOSTROBIN], the Activity in the assay with Podosphaera fuliginea [1] is on record as 40%; in the assay with Podosphaera fuliginea [2] it was 0%; in [6], 97%; in assay [7], 40%; in the assay with Podosphaera fuliginea [8], 100%; in the assay on Podosphaera fuliginea [9], 70%. For the same compound, the Activity in assay [10] is recorded as 70%; in assay [11], 60%.
For the compound `COC(c1ccon1)c1ccccc1COc1cc(C)ccc1C` (stereo not drawn), the Activity was determined as 50% in assay [12], 50% in the assay with Botrytis cinerea and 90% with Podosphaera fuliginea [8].
`COC(c1cc(C)no1)c1ccccc1/C=N/N=C(\C)c1ccccc1Br` (stereo not drawn): the figures for the Activity (in assay [12]; in the assay with Podosphaera fuliginea [14]) were 50% and 90%, respectively.
With `COC(c1cc(C)no1)c1ccccc1COc1cc(C)ccc1C` (stereo not drawn), the values for the Activity (in [12]; in the assay with Botrytis cinerea; in the assay on Podosphaera fuliginea [9]) were 50%, 50% and 90%, respectively.
On to `COC(c1cc(C)no1)c1ccccc1/C=N/N=C(\C)c1ccc(C)cc1` (stereo not drawn), for which the Activity was determined as 50% in [12] and 90% in the assay on Podosphaera fuliginea [8].
On to `COC(c1cc(C)no1)c1ccccc1Oc1cc(Oc2ccccc2C#N)ncn1` (stereo not drawn), for which the Activity in assay [12] was 50%; in the assay with Botrytis cinerea it was 50%; in the assay on Podosphaera fuliginea [14] it was 90%.
